According to patent US20150272939A1, “Identification of Small Molecule Inhibitors of Jumonji AT-Rich Interactive Domain 1A (JARID1A) and 1B (JARID1B) Histone Demethylase” (Yale University, priority 2012, published 2015):

What was measured:
JARID1B = molecular target: T1, JARID1B (Homo sapiens, UniProt Q9UGL1); experiment: FLAG-JARID1B histone demethylase assay with AlphaScreen detection (HTS and dose response); assay type: biochemical; details: for inhibition at 20 µM: high-throughput screen, compound 20 μM, standard demethylase conditions (10 μM α-KG, 50 μM Fe (II)), read-out: Inhibitory effect (percent); for Validation result of HTS active: effect of the compound in the JARID1B AlphaScreen demethylase assay / Assay Signal (percent): validation of HTS actives; for Validation result of HTS active: effect of the compound in the JARID1B AlphaScreen demethylase assay: total signal before subtraction of artifact signal; for Assay − Artifact Signal (percent): assay signal minus artifact signal; for Assay Signal (percent): effect of compound in JARID1B AlphaScreen assay;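 on Assay Signal (percent): compound tested at 20 µM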;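 on Assay − Artifact Signal (percent): compound tested at 20 µM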;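 on all read-outs here: FLAG-tagged JARID1B at 4 nM acting on a biotinylated H3K4me3 peptide, demethylation read by AlphaScreen luminescence, with hits checked against bio-H3K4me2 without enzyme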
T1 construct: The FLAG tagged full length JARID1B enzyme was expressed in Sf21 insect cells using FLAG-JARID1B baculoviruses; FLAG (N); made in house; host or cells: Sf21 insect cells (baculovirus)
T1 sequence (Q9UGL1 whole entry): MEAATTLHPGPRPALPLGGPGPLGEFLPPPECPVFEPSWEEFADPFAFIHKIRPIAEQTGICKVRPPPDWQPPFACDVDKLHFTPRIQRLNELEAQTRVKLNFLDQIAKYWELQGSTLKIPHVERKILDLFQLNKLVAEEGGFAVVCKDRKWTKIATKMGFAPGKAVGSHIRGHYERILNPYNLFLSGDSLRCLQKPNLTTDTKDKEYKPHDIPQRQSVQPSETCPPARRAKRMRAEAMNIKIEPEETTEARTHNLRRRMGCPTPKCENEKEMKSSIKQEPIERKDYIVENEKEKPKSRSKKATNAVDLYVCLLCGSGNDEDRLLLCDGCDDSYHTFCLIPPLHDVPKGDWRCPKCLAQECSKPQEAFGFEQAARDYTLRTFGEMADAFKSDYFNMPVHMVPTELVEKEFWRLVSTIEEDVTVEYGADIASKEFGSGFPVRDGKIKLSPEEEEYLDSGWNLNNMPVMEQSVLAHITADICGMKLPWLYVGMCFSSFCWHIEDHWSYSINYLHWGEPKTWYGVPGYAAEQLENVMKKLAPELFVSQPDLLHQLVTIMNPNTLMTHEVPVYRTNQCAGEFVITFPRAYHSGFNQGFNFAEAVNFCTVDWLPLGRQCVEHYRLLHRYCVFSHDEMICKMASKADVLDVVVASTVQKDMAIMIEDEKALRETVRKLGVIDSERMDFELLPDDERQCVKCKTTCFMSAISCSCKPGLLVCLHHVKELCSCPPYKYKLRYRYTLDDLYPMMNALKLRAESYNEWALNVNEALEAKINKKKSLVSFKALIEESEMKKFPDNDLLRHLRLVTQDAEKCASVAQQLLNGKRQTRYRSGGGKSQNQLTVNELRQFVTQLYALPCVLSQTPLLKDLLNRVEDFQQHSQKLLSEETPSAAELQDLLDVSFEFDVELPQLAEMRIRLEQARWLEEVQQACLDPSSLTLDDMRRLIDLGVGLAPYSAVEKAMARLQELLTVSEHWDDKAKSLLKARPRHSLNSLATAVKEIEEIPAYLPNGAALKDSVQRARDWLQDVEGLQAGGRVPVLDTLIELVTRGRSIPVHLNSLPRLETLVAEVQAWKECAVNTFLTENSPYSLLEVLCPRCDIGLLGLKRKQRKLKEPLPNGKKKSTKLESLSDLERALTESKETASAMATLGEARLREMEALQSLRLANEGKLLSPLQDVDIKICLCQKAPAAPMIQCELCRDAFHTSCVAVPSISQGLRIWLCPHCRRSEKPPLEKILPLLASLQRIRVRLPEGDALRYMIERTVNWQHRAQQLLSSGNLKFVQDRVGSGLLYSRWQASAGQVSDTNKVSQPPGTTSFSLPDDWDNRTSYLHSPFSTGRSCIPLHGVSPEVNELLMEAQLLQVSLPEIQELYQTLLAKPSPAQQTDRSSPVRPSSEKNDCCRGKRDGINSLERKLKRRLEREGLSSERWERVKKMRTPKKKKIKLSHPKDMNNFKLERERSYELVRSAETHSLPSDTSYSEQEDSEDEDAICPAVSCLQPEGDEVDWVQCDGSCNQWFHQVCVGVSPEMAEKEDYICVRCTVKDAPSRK

[1] = AlphaScreen counterscreen against bio-H3K4me2 peptide in the absence of enzyme (artifact signal); details: for Artifact signal: effect of the compound when it is incubated with bio-H3K4me2 peptide: counterscreen, no enzyme; for Artifact Signal (percent): effect of the compound when incubated with bio-H3K4me2 peptide (counterscreen, no enzyme);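 on all read-outs here: counterscreen run without enzyme against bio-H3K4me2 peptide to remove false positive hits from the JARID1 demethylase AlphaScreen screen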

SMILES | inhibition at 20 µM (JARID1B) | Validation result of HTS active: effect of the compound in the JARID1B AlphaScreen demethylase assay (JARID1B) | Artifact signal: effect of the compound when it is incubated with bio-H3K4me2 peptide [1] | Assay − Artifact Signal (percent) (JARID1B) | Assay Signal (percent) (JARID1B) | Artifact Signal (percent) [1]
Cc1cc(-c2ccc(NC(=O)CCC(=O)O)c(C)c2)ccc1NC(=O)CCC(=O)O [YU104987] | 55.2% | 7.41 | 3.17 | – | – | –
O=C(CCCCCCC(=O)N(c1ccccc1)c1ccccc1)N(c1ccccc1)c1ccccc1 [YU105079] | 68.9% | 44.39 | 43.24 | – | – | –
Cc1ccc(C)c(CN2CCN(Cc3ccccc3)CC2)c1 [YU105182] | 35.3% | 3.14 | −1.74 | – | – | –
Clc1cccc(N2CCN(Cc3ccc4ccccc4c3)CC2)c1 [YU105195] | 38.9% | 8.75 | 5.28 | – | – | –
Cc1ccc([N+](=O)[O-])cc1N(CC(=O)Nc1ccc(Cl)c(C(F)(F)F)c1)S(C)(=O)=O [YU121632] | 59.2% | 2.95 | −1.84 | – | – | –
c1cc(CNc2ccc(N3CCOCC3)cc2)ccn1 [YU129874] | 74.5% | – | – | 67.88% | 72.06% | 4.18%
CC(=O)NNC(=O)c1ccncc1 [YU129955] | 88.7% | – | – | 96.89% | 92.06% | −4.84%
OC1CCN(C(=S)NC2CC2)CC1 [YU144896] | 90.6% | −9.38 | −14.49 | – | – | –
CCn1c(S)nnc1-c1ccncc1 [YU144949] | 38.8% | – | – | 43.88% | 40.70% | −3.18%
CCC(=O)c1c(O)n(C)c(=O)n(C)c1=O [YU145029] | 61.6% | – | – | 34.42% | 34.53% | 0.11%
CCOc1c(O)ccc(C=O)c1[N+](=O)[O-] [YU145037] | 66.1% | −4.02 | −1.09 | – | – | –
O=C1NC(=O)C(c2ccc(Cl)cc2)N1 (stereo not shown) [YU145089] | 78.3% | 4.23 | −1.01 | – | – | –
CSc1nc2cc(F)c(F)cc2n1C [YU145132] | 91.5% | −6.93 | −7.06 | – | – | –
CC(NC(=O)c1ccco1)c1ccncc1 (stereo not shown) [YU145239] | 42.4% | 7.68 | 0.21 | – | – | –
Cc1ccc(CNn2cnnc2S)cc1 [YU145266] | 45.7% | – | – | 44.07% | 45.11% | 1.04%
COc1ccc2c(CCN)c[nH]c2c1.Cl [YU145407] | 43% | – | – | 8.55% | 6.76% | −1.79%
Cc1ccsc1CNn1cnnc1S [YU145432] | 33.3% | – | – | 46.83% | 48.50% | 1.67%
O=C(O)c1cccc(NCc2ccncc2)c1 [YU145461] | 94.6% | – | – | 95.48% | 96.37% | 0.89%

SMILES | inhibition at 20 µM (JARID1B) | Validation result of HTS active: effect of the compound in the JARID1B AlphaScreen demethylase assay (JARID1B) | Artifact signal: effect of the compound when it is incubated with bio-H3K4me2 peptide [1] | Assay − Artifact Signal (percent) (JARID1B) | Assay Signal (percent) (JARID1B) | Artifact Signal (percent) [1]
Cc1ccc(C)n1NC(=O)c1ccc(O)cc1 [YU145520] | 36.9% | 3.79 | 1.80 | – | – | –
N#Cc1c(O)nc(S)nc1-c1ccccc1 [YU145521] | 68.2% | – | – | 9.91% | 6.99% | −2.92%
c1ccc2c(NCc3ccncc3)cccc2c1 [YU145649] | 87.7% | – | – | 87.87% | 89.97% | 2.10%
Cc1cc(C)nc(N(C#N)C(=S)N(C)C)n1 [YU145653] | – | – | – | 27.17% | 18.58% | −8.59%
CCCN1CCN(C(=O)c2ccncc2)CC1 [YU145702] | 35.9% | – | – | 45.86% | 44.33% | −1.53%
CC(C)n1c(-c2ccccc2F)n[nH]c1=S [YU145747] | 31.3% | – | – | 31.49% | 36.22% | 4.74%
CC(O)Cc1nnc(S)n1-c1ccccc1 (stereo not shown) [YU145796] | 34.8% | – | – | 40.83% | 33.04% | −7.79%
Cl.Cn1cccc1CNCc1ccncc1 [YU145853] | 76.6% | – | – | 57.65% | 66.64% | 8.99%
CN(C)c1cccc2c(C=O)ccc(N(C)C)c12 [YU145980] | 32.3% | – | – | 28.03% | 35.60% | 7.56%
Cc1cc(C)nc(Nc2ccc(N(C)C)cc2)n1 [YU146020] | 30.9% | – | – | 8.99% | 12.15% | 3.15%
Cc1ccc(-n2sc3ccccc3c2=O)cc1 [YU146026] | 87.8% | – | – | 85.63% | 88.51% | 2.88%
COC(=O)Nc1nnc(CC2CCCC2)s1 [YU146034] | 33% | – | – | 21.12% | 18.33% | <2.79%
O=C(NCCOc1ccccc1)c1ccccc1 [YU146037] | 32.6% | −0.56 | −1.42 | – | – | –
c1cc(CNc2ccc3c(c2)OCCO3)ccn1 [YU146041] | 48.7% | – | – | 54.24% | 55.23% | 0.99%
C=CCNCCCCOc1cccc(OCC)c1 [YU146294] | 36.5% | – | – | 8.13% | 14.08% | 5.94%
COc1ccc(CNn2c(C)nnc2S)cc1 [YU146438] | 36.9% | – | – | 42.15% | 50.33% | 8.17%
O=Cc1ccc(-c2ccc(S(=O)(=O)O)cc2)o1 [YU146454] | 42.3% | – | – | 68.83% | 64.68% | −4.14%
